{
  "source": "patent US11369611B2",
  "about": "“Therapeutic compounds and uses thereof” (Kala Pharmaceuticals, Inc., priority 2013, dated 2022)",
  "key": {"[1]": {"experiment": "Draize ocular irritation assessment", "format": "in vivo", "conditions": "MPP 0.5%, 50 μL topical BID 5 days, Dutch-belted rabbits", "source_text": "Dutch-belted rabbits were used in these studies."}, "[2]": {"experiment": "Particle size of compounds milled with PLURONIC F127 as MPP (dynamic light scattering)", "format": "physicochemical", "conditions": "formulated as MPP, milled with PLURONIC F127, DPBS buffered", "source_text": "The compounds of the present invention synthesized in accordance with the preceding Examples were formulated as mucus penetrating particles (MPP). Specifically, Compound 4 of Example 1, Compound 9 of Example 2, and Compound 13 of Example 3 were each milled in the presence of PLURONIC F127 (F127) to determine whether F127 1) aids particle size reduction to several hundreds of nanometers and 2) physically (non-covalently) coats the surface of generated nanoparticles with a mucoinert coating that would minimize particle interactions with mucus constituents and prevent mucus adhesion.\nA milling procedure was employed in which an aqueous dispersion containing coarse drug particles and PLURONIC F127 (F127) was milled with grinding medium until particle size was reduced below 400 nm as measured by dynamic light scattering. Table 4 lists the size of particles and polydispersity index (a measure of the width of the particle size distribution) generated using this technique. In this example suspensions were buffered using DPBS (Dulbecco's Phosphate-Buffered Saline) which yields a suspension that is both isotonic and has a physiologically relevant pH."}},
  "data": [
    {"smiles": "COc1cc2c(Oc3ccc4[nH]c(C)cc4c3F)ncnc2cc1OCCCN1CCC2(CC1)COC2", "note": "[Compound 4, 7-(3-(4-(4-fluoro-2-methyl-1H-indol-5-yloxy)-6-methoxyquinazolin-7-yloxy)propyl)-2-oxa-7-azaspiro[3.5]nonane]", "values": [
      {"measurement": "Draize-Ocular Irritation", "setting": "[1]", "value": "no irritation was seen"},
      {"measurement": "Particle Size", "setting": "[2]", "value": 270, "unit": "nm"}
    ]}
  ]
}
